This is an account of results in paper PMC5430874 (Scientific Reports, 2017).

SMILES strings stand for the structures. Substitutions are numbered along the chain they refer to. A value given as a limit tells only on which side of the number the result lay.

Common to all, as to assay type: cell-based
The target of test [1] is T1, GPR139 F109L^3×33 (Homo sapiens, UniProt Q6DWJ6, F109L).
T1 construct: mGluR5 signal peptide (N); expressed in transfected cells; host or cells: HEK293
T1 sequence (Q6DWJ6 2-353 F109L limits assumed): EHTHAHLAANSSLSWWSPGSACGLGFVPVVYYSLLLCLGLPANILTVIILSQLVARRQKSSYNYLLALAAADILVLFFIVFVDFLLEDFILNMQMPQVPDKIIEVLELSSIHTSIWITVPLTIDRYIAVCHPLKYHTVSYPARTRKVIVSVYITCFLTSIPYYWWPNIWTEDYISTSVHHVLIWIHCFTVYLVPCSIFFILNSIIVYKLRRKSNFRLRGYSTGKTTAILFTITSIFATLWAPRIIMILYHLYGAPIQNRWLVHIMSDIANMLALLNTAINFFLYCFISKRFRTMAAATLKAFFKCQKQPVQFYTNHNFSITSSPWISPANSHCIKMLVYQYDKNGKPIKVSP
Put plainly: Fluo-4 Ca2+-assay, GPR139 mutant F109L. The note with it: for EC50: F109L mutant. An excerpt: (§1) To study the influence of specific amino acids in the predicted binding pocket on receptor function, the desired mutations were introduced into an N-terminally c-myc-tagged wild type human GPR139 (NM_001002911.3) in the pEGFP-N1 vector (BD Biosciences)[32], [33]. As previously described, these plasmids carry the signal peptide of mGluR5 to promote cell surface expression followed by a c-myc epitope to enable detection of total and surface expression by ELISA, followed by an engineered MluI and NotI site for easy insertion of the receptor of interest. Furthermore, the start-codon in the GPR139 sequence was deleted to ensure c-myc-tagging. Mutagenesis was designed in Serial Cloner 2.6 (© Franck Perez [SerialBasics]) and carried out by GenScript (USA). All mutated residues are illustrated in Supplementary Fig. 1b. An untagged GPR139(WT) in pEGFP-N1 was also generated to ensure that the c-myc-tag had no influence on GPR139(WT) function.
(§2) All GPR139 mutants were transfected into HEK293 cells. The HEK293 cells were grown in Dulbecco’s modified Eagle’s medium (DMEM) (Gibco, 41965) supplemented with 10% dialyzed fetal bovine serum (Gibco, 26400, United States origin), 100 units/mL penicillin and 100 μg/mL streptomycin (Gibco, 15140). HEK293 cells were reverse transfected using Lipofectamine2000 (Invitrogen). More specifically two mixtures were made: 1) 10 ng DNA/well + 25 μL Opti-MEM/well and 2) […] Lipofectamine2000/well + 25 μL Opti-MEM/well. The two mixtures were mixed and 50 μL/well was added directly in black 96-well plates with flat clear bottoms for the Fluo-4 Ca^2+-assay (Corning, Falcon, 353219) or in white Opaque 96-well Microplate (PerkinElmer Life, 6005680) for ELISA. 100 μL containing 20,000 cells were added to each well and incubated 48 hours before assays. All plates were coated with poly-D-lysine.
(§3) Compound 1a (1a) was kindly provided by H. Lundbeck A/S, Denmark. […] Both compounds were dissolved to 20 mM in DMSO (Sigma, D2650) and subsequently diluted in a HEPES buffer (HBSS (Gibco, 14025) supplemented with 20 mM HEPES + 1 mM MgCl2 + 1 mM CaCl2, pH = 7.4) to a final concentration of 0.5% DMSO in the Fluo-4 Ca^2+-assay. The DMSO level was kept constant for all concentrations of both compounds. DMSO was confirmed not to have any activity by itself at this concentration. L-Trp (T0254) and L -Phe (P2126) were obtained from Sigma-Aldrich and dissolved in buffer.
(§4) The Ca^2+ measurements were preformed using the Fluo-4 NW Calcium Assay Kit (Invitrogen, Molecular Probes, F36206) as previously described. Briefly, the Fluo-4 dye loading solution was prepared according to the manufacturer’s instructions by dissolving it in HEPES-buffer supplemented with 2.5 mM probenecid. 50 μL dye loading solution was added to each well. Cells were incubated with the Fluo-4 dye for 60 min at 37 °C, then washed with 100 μL HEPES-buffer. 100 μL HEPES-buffer supplemented with 2.5 mM probenecid was then added to each well and incubated in 10 minutes at 37 °C before measurement. […] Intracellular calcium changes were recorded as indicated on either a NOVOstar (BMG Labtech) at 37 °C with an excitation filter of 485 nm and an emission filters 520 nm or a FlexStation 3 Benchtop Multi-Mode Microplate Reader (Molecular Devices) at 37 °C with an excitation wavelength of 485 nm and emission of 525 nm.
(§5) All pharmacological data have been analyzed by using Prism 6.0 (GraphPad Software Inc., San Diego). Fitting of concentration response curves was performed by non-linear regression log(agonist) vs. response (four parameters). Pooled data are shown with standard error of the mean (S.E.M.) and data showing one representative are shown with standard deviation (S.D.). Changes in potency (pEC50) and span of myc-GPR139(WT) in comparison to untagged GPR139(WT) was statistically analyzed with a paired t-test and significance was accepted at p < 0.05. The ELISA data were normalized to surface expression of myc-GPR139(WT) (100%). […]

Test [2] has as its target T2, GPR139 N271A^7×38 (Homo sapiens, UniProt Q6DWJ6, N271A).
T2 construct: mGluR5 signal peptide (N); expressed in transfected cells; host or cells: HEK293
T2 sequence (Q6DWJ6 2-353 N271A limits assumed): T1 sequence (Q6DWJ6 2-353 F109L limits assumed) with L108F, N270A
Put plainly: Fluo-4 Ca2+-assay, GPR139 mutant N271A. Set-up: key to Emax ± SEM: NE: no effect (loss of activity). To be noted: for EC50: N271A mutant (surface expression 53% of WT); for Change of in vitro potency: N271A mutant versus WT.
Excerpt: as §1, §2, §3, §4, §5

Test [3] addresses T3, GPR139 H187A^5×43 (Homo sapiens, UniProt Q6DWJ6, H187A).
T3 construct: mGluR5 signal peptide (N); expressed in transfected cells; host or cells: HEK293
T3 sequence (Q6DWJ6 2-353 H187A limits assumed): T1 sequence (Q6DWJ6 2-353 F109L limits assumed) with L108F, H186A
The test is described as follows: Fluo-4 Ca2+-assay, GPR139 mutant H187A. To be noted: for EC50: H187A mutant (surface expression 36% of WT).
Excerpt: as §1, §2
Compound 1a (1a) was kindly provided by H. Lundbeck A/S, Denmark. […]
The Ca^2+ measurements were preformed using the Fluo-4 NW Calcium Assay Kit (Invitrogen, Molecular Probes, F36206) as previously described. […] Intracellular calcium changes were recorded as indicated on either a NOVOstar (BMG Labtech) at 37 °C with an excitation filter of 485 nm and an emission filters 520 nm or a FlexStation 3 Benchtop Multi-Mode Microplate Reader (Molecular Devices) at 37 °C with an excitation wavelength of 485 nm and emission of 525 nm.
All pharmacological data have been analyzed by using Prism 6.0 (GraphPad Software Inc., San Diego). […] Changes in potency (pEC50) and span of myc-GPR139(WT) in comparison to untagged GPR139(WT) was statistically analyzed with a paired t-test and significance was accepted at p < 0.05. […]

By EC50 is commonly meant the concentration giving half of the maximal effect. By Emax is commonly meant the size of the effect at its maximum, as opposed to the concentration needed. As to `N[C@@H](Cc1c[nH]c2ccccc12)C(=O)O` [L-Trp, tryptophan], the EC50 in test [1] and in test [2] was greater than 10000 µM throughout. For the same compound, the Emax at 10000 µM stood at 60 ± 5% in test [1] (F109L, at 10 mM, normalized to buffer (0%) and 10 mM Trp (100%) on WT); 31 ± 5% in test [2] (N271A, at 10 mM, normalized to buffer (0%) and 10 mM Trp (100%) on WT).

For the compound `COc1cc(OC)cc(C(=O)NNC(=O)Nc2cccc3ccccc23)c1` [Compound 1a], the EC50 in test [1], in test [2] and in test [3] was greater than 7.94 µM in each case. In addition, the Emax at 8 µM in test [1] (F109L, at 8 μM, normalized to buffer (0%) and 8 μM 1a (100%) on WT) was 42 ± 16%; in test [3] (H187A, at 8 μM, normalized to buffer (0%) and 8 μM 1a (100%) on WT) it was 35 ± 5%. In addition, in test [2], the “Change of in vitro potency” value is given as “Loss of function”. Also, the “Emax ± SEM” value in test [2] (N271A, at 8 μM, normalized to buffer (0%) and 8 μM 1a (100%) on WT) was “NE*”.

Take `N[C@@H](Cc1ccccc1)C(=O)O` [L-Phe, phenylalanine]: the EC50 in test [1] and in test [2] was greater than 31600 µM throughout. Also, the Emax at 30000 µM in test [1] (F109L, at 30 mM, normalized to buffer (0%) and 30 mM Phe (100%) on WT) worked out at 72 ± 9%; in test [2] (N271A, at 30 mM, normalized to buffer (0%) and 30 mM Phe (100%) on WT) it was 38 ± 9%.

For the compound `C[C@@H](NC(=O)CNC(=O)c1cccc(Cl)c1)c1ccccc1` (racemic) [Compound 7c], the maximal effect (Emax) in test [1] was 102 ± 3%; in test [3] it was 60 ± 9%. Besides, the EC50 in test [1] is 3.98 µM; in test [2] it was greater than 100 µM; in test [3], 6.61 µM. Further, in test [1] (F109L mutant versus WT), the change of potency is recorded as ~ 100 fold. In addition, the “Change of in vitro potency” value in test [2] is reported as “Loss of function”. Besides, the “Emax ± SEM” value in test [2] (N271A, at 100 μM, normalized to buffer (0%) and 100 μM 7c (100%) on WT) was “NE**”.
